Molecules are shown by their SMILES.

For the experiment, the target named is T1, hNaV1.7 (Homo sapiens, UniProt Q15858).
T1 construct: expressed in transfected cells
T1 sequence (Q15858 1-1977 isoform Q15858-3): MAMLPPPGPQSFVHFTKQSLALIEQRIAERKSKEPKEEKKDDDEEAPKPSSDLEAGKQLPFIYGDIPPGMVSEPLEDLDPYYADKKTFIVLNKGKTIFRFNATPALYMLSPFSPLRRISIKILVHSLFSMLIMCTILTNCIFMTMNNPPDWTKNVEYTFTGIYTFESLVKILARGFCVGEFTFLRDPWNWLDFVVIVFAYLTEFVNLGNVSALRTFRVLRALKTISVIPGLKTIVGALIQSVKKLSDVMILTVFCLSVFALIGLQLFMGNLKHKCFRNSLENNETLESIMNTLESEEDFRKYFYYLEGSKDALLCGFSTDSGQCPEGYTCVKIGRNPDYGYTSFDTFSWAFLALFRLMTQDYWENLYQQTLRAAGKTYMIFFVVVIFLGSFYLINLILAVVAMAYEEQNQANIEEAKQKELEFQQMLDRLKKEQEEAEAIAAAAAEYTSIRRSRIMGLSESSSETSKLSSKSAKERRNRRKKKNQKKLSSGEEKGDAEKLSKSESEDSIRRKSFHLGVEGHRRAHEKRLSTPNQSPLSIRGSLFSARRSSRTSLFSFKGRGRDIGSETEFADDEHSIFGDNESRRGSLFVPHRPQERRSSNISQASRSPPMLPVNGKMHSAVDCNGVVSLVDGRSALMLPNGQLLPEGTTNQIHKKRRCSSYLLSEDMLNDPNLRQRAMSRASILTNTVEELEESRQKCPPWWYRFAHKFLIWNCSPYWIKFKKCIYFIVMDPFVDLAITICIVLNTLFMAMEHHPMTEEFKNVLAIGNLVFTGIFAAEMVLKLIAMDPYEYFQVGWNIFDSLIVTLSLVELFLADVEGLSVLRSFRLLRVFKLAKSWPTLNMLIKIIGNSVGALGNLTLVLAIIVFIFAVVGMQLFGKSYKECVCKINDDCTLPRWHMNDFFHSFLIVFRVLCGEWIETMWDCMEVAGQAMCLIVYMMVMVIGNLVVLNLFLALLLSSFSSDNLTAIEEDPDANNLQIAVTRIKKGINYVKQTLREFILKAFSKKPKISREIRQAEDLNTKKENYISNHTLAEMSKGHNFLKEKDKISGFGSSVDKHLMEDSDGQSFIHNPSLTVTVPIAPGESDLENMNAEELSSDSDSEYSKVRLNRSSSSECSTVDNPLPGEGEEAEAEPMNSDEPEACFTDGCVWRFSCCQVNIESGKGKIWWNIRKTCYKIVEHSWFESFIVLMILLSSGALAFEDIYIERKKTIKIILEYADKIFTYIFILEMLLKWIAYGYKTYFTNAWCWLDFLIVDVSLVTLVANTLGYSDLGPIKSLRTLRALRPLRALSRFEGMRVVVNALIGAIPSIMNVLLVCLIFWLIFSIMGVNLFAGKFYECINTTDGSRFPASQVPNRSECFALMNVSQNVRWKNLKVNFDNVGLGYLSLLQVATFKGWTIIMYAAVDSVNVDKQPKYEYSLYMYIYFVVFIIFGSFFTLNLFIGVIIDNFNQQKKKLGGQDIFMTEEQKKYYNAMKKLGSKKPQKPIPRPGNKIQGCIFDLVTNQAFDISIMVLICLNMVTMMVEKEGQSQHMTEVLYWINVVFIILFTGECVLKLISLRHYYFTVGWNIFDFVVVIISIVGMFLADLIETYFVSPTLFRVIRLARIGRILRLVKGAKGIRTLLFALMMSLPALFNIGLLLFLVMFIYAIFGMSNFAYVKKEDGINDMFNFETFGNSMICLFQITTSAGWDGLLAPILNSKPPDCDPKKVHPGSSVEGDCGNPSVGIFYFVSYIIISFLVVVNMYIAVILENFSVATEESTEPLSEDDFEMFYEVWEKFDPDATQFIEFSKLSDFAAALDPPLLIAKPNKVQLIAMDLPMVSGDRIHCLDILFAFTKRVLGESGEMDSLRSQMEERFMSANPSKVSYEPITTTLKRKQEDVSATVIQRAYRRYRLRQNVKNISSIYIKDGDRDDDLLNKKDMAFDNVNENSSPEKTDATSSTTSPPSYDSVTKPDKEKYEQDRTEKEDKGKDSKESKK
The experiment in a line: Patch voltage clamp electrophysiology (EP), Syncropatch 384PE, Nav1.7 in CHO cells.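 Also: Nav1.7 stably expressed from cDNA in CHO cells, holding potential of −50 mV kept for the entire experiment.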 The format is cell-based. To be noted: holding potential −50 mV, inhibition based on 7.5 min compound incubation, read-out: hNaV1.7 EP_SP.
Consider `NC[C@H]1CCCN(S(=O)(=O)NC(=O)c2cc(Cl)c(OCC3CCCC3)cc2F)C1` (single isomer, unassigned) [Example 27, 2,2,2-trifluoroacetate], for which the IC50 came out at 0.09 µM.

`COc1ccc(F)cc1-c1nccc2cc(S(=O)(=O)NC(=O)c3cc(Cl)c(OCC4CCCC4)cc3F)ccc12` [Example 72, 5-chloro-4-(cyclopentylmethoxy)-2-fluoro-N-((1-(5-fluoro-2-methoxy-phenyl)isoquinolin-6-yl)sulfonyl)benzamide]: the IC50 turned out to be 0.34 µM. In the case of `O=C(NS(=O)(=O)N1CCC(OC2CCNCC2)CC1)c1cc(Cl)c(OCC2CCCC2)cc1F` [Example 53, 5-chloro-4-(cyclopentylmethoxy)-2-fluoro-N-((4-(piperidin-4-yloxy)piperidin-1-yl)sulfonyl) benzamide] it was 0.25 µM; in that of `CN(C)[C@H]1CCCC[C@@H]1Oc1ccc(S(=O)(=O)Nc2nc3cccc(Cl)c3s2)c(F)c1` [Example 99, N-(7-chlorobenzo[d]thiazol-2-yl)-4-(((1S,2S)-2-(dimethylamino)cyclohexyl)-oxy)-2-fluorobenzenesulfonamide], 0.43 µM. As for `COC1CCN(S(=O)(=O)NC(=O)c2cc(Cl)c(OCC3CCCC3)cc2F)CC1` [Example 20, 5-chloro-4-(cyclopentylmethoxy)-2-fluoro-N-((4-methoxypiperidin-1-yl)sulfonyl)benzamide], the IC50 is 0.049 µM. For the compound `C[C@H]1CCCN1S(=O)(=O)NC(=O)c1cc(Cl)c(OCC2CCCC2)cc1F` (single isomer, unassigned) [Example 223], the IC50 came out at 0.039 µM. In the case of `CN(C)[C@H]1CCCC[C@@H]1Oc1ccc(S(=O)(=O)NC(=O)c2cc(C3CC3)c(OCC3CCCC3)cc2F)c(F)c1` [Example 65, 4-(cyclopentylmethoxy)-5-cyclopropyl-N-((4-(((1S,2S)-2-(dimethylamino)cyclohexyl)oxy)-2-fluorophenyl)sulfonyl)-2-fluorobenzamide] it was 0.025 µM. Regarding `COc1ccccc1-n1cc(S(=O)(=O)NC(=O)c2cc(Cl)c(OCC3CCCC3)cc2F)cn1` [Example 291, 5-chloro-4-(cyclopentylmethoxy)-2-fluoro-N-((1-(2-methoxyphenyl)-1H-pyrazol-4-yl)sulfonyl)benzamide], the IC50 was determined as 0.35 µM. Turning to `CN(C)C[C@@H]1CN(S(=O)(=O)NC(=O)c2cc(Cl)c(OCC3CCCC3)cc2F)CCO1` (single isomer, unassigned) [Example 28], the IC50 was found to be 0.23 µM.

With `CN(C)[C@H]1CCCC[C@@H]1Oc1ccc(S(=O)(=O)Nc2noc3cc(OCC4CCCC4)c(C4CC4)cc23)c(F)c1` [Example 89, N-(6-(cyclopentylmethoxy)-5-cyclopropylbenzo[d]isoxazol-3-yl)-4-(((1S,2S)-2-(dimethylamino)cyclohexyl)oxy)-2-fluorobenzenesulfonamide], the IC50 came to 0.34 µM. As to `O=C(NS(=O)(=O)c1ccccc1)c1cc(Cl)c(OCC2CCCC2)cc1F` [Example 78, 5-chloro-4-(cyclopentylmethoxy)-2-fluoro-N-(phenylsulfonyl)benzamide], the IC50 came out at 0.1 µM. As to `N[C@H]1CCCCN(S(=O)(=O)NC(=O)c2cc(Cl)c(OCC3CCCC3)cc2F)C1` (single isomer, unassigned) [Example 219, 2,2,2-trifluoroacetate], the IC50 turned out to be 0.65 µM.

For `CCc1cccc(S(=O)(=O)NC(=O)c2cc(Cl)c(OCC3CCCC3)cc2F)c1` [Example 244, 5-chloro-4-(cyclopentylmethoxy)-N-((3-ethylphenyl)sulfonyl)-2-fluorobenzamide], the IC50 turned out to be 0.77 µM. Turning to `O=C(NS(=O)(=O)c1ccc2c(c1)CCO2)c1cc(Cl)c(OCC2CCCC2)cc1F` [Example 271, 5-chloro-4-(cyclopentylmethoxy)-N-((2,3-dihydrobenzofuran-5-yl)sulfonyl)-2-fluorobenzamide], the IC50 is 0.26 µM. The value for `O=C(NS(=O)(=O)c1ccc(O[C@@H]2CCNC2)cc1)c1cc(Cl)c(OCC2CCCC2)cc1F` (single isomer, unassigned) [Example 69] was 0.13 µM.
